From ChEMBL document CHEMBL5241112, “Insights into the recent progress in the medicinal chemistry of pyranopyrimidine analogs” (RSC Med Chem, 2022)
≈ marks a conversion by molar mass, not a printed value.

Legend:
[1] = Antioxidant activity assessed as DPPH radical scavenging activity at 12 ug incubated for 30 mins by spectrophotometric analysis; type: functional; settings: dose 12.0 µg
[2] = Antioxidant activity assessed as DPPH radical scavenging activity incubated for 20 mins by spectrophotometric analysis; type: functional; set-up: concentration or dose not given beside the values
[3] = Antioxidant activity assessed as hydroxyl radical scavenging activity incubated for 5 mins by spectrophotometric analysis; type: functional; set-up: concentration or dose not given beside the values
[4] = test system: MCF7; experiment: cells; settings: Homo sapiens, MCF7, 48 h
[5] = molecular target: Alpha-glucosidase (Saccharomyces cerevisiae S288c, UniProt P53341+P38158+P07265); experiment: Inhibition of Saccharomyces cerevisiae alpha-glucosidase preincubated for 5 mins followed by PNP-GLUC substrate addition and measured after 20 mins by spectroscopic analysis; type: protein assay
[6] = Inhibition of porcine pancreatic alpha-amylase preincubated for 10 mins followed by substrate starch addition and measured after 10 mins by colorimetric analysis; set-up: species or system Sus scrofa
[7] = molecular target: Albumin (Bos taurus, UniProt P02769); experiment: […] bovine serum albumin denaturation incubated for 23 mins by UV-Visible spectrophotometry
Sequence of Albumin (P02769 whole entry): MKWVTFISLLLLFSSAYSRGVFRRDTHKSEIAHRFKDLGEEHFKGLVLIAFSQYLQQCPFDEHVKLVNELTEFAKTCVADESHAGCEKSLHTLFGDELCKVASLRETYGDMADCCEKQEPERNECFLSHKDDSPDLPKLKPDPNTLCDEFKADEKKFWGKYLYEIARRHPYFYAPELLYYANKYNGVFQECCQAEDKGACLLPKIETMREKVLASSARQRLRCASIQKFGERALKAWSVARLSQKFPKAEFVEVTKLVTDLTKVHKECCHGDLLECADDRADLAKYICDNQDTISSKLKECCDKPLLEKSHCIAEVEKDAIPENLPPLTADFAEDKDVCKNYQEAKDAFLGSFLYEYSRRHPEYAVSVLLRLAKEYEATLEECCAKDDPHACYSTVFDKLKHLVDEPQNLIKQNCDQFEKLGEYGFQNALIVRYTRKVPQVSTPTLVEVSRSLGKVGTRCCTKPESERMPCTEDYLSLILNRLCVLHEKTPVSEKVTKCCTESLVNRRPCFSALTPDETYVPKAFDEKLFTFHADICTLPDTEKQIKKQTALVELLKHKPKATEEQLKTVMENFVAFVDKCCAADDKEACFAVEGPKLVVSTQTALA

[8] = organism: Homo sapiens; experiment: Anticoagulant activity in human plasma assessed as activated partial thromboplastin time at 1000 ug/ml incubated for 4 mins; type: functional; settings: dose 1000 µg/ml
[9] = test system: Pseudomonas aeruginosa; experiment: Antibacterial activity against Pseudomonas aeruginosa assessed as bacterial growth inhibition by broth microdilution method; type: functional
[10] = test system: Klebsiella pneumoniae; experiment: Antibacterial activity against Klebsiella pneumoniae assessed as bacterial growth inhibition by broth microdilution method; type: functional
[11] = test system: Staphylococcus aureus; experiment: Antibacterial activity against Staphylococcus aureus assessed as bacterial growth inhibition by broth microdilution method; type: functional
[12] = test system: Escherichia coli; experiment: Antibacterial activity against Escherichia coli assessed as bacterial growth inhibition by broth microdilution method; type: functional
[13] = test system: HepG2; experiment: Anticancer activity against human HepG2 cells assessed as reduction in cell viability; type: functional, cell-based
[14] = test system: MCF7; experiment: Anticancer activity against human MCF7 cells assessed as reduction in cell viability; type: functional, cell-based
[15] = test system: HCT-116; experiment: cells; settings: Homo sapiens
[16] = test system: MCF7; experiment: cells; type: functional, cell-based; settings: Homo sapiens, MCF7, 96 h
[17] = test system: HCT-116; experiment: Anticancer activity against human HCT-116 cells assessed as reduction in cell viability incubated for 96 hrs by MTT assay; type: functional, cell-based; settings: HCT-116, 96 h
[18] = test system: Staphylococcus aureus; experiment: Antibacterial activity against Staphylococcus aureus NCIM 2654 assessed as diameter of inhibition zone incubated for 24 hrs by agar well diffusion method; type: functional
[19] = test system: Aspergillus ochraceus; experiment: Antifungal activity against Aspergillus ochraceus assessed as diameter of inhibition zone by disc diffusion method; type: functional
[20] = test system: Penicillium chrysogenum; experiment: Antifungal activity against Penicillium chrysogenum assessed as diameter of inhibition zone by disc diffusion method; type: functional

In the case of Cc1n[nH]c2c1C(c1ccncc1)c1c([nH]c(=O)[nH]c1=O)O2 (stereo unspecified), the Activity [1] is reported as 59%.

O=c1[nH]c2c(c(=O)[nH]1)Oc1c(c(=O)oc3ccccc13)C2c1c(Cl)cccc1Cl (stereo unspecified) gave an Activity [2] of 71.2% and an Activity [3] of 65.4%.

COc1cc(C2CC(=O)Oc3[nH]c(=O)[nH]c(=O)c32)cc(OC)c1OC (stereo unspecified) showed an IC50 [4] of 8.9 µM.

COc1ccc(C2c3[nH]c(=O)[nH]c(=O)c3Oc3c2c(=O)oc2ccccc32)c(O)c1 (stereo unspecified) gave an Activity [2] of 59.1% and an Activity [3] of 54.3%.

Work on O=c1[nH]c2c(c(=O)[nH]1)Oc1c(c(=O)oc3ccccc13)C2c1ccccc1O (stereo unspecified) yielded an Activity [2] of 59.1% and an Activity [3] of 54.3%.

Molecule Cc1ccc(C2C(C(=O)N3CCCCC3)=C(c3ccccc3O)Oc3[nH]c(=S)[nH]c(=O)c32)cc1 (stereo unspecified) has an IC50 [5] of 4000 µM, an IC50 [6] of 14.1 µM and an IC50 [7] of 19.5 µM.

Molecule CC1(C)CC(=O)C2=C(C1)Oc1ncn(-c3ccccc3)c(=N)c1C2c1ccccc1 (stereo unspecified) has a Time [8] of 57.1 s.

Molecule COc1cc(C2C(C(=O)N3CCCCC3)=C(c3ccccc3O)Oc3[nH]c(=S)[nH]c(=O)c32)ccc1O (stereo unspecified) has an IC50 [5] of 4862 µM, an IC50 [6] of 22.6 µM and an IC50 [7] of 23.3 µM.

O=C(C1=C(c2ccccc2O)Oc2[nH]c(=S)[nH]c(=O)c2C1c1cc2ccccc2cc1O)N1CCCCC1 (stereo unspecified) showed an IC50 [5] of 5337 µM, an IC50 [6] of 6.49 µM and an IC50 [7] of 20.1 µM.

For CCO/C=N/C1=C(C#N)C(c2ccccc2OC)c2c(n(C)c(=O)n(C)c2=O)O1 (stereo unspecified), the MIC [9] was 6.25 mg/L (≈ 15.8 µM), the MIC [10] was 6.25 mg/L (≈ 15.8 µM) and the MIC [11] was 6.25 mg/L (≈ 15.8 µM). The MIC [12] was 6.25 mg/L (≈ 15.8 µM).

Work on COc1ccc(-n2cnc3c(c2=N)C(c2ccccc2)C2=C(CC(C)(C)CC2=O)O3)cc1 (stereo unspecified) yielded a Time [8] of 57 s.

With COc1ccc(C2C(C#N)=C(NC(C)=O)Oc3[nH]c(=O)[nH]c(=O)c32)cc1 (stereo unspecified) the IC50 [13] was 2.09 µM, the IC50 [14] was 2.43 µM and the IC50 [15] was 2.61 µM.

For O=c1[nH]c2c(c(=O)[nH]1)C(c1cccs1)c1[nH]c(=S)n(-c3ccccc3)c(=O)c1O2 (stereo unspecified), the IC50 [16] was 1.28 µM and the IC50 [17] was 2.76 µM.

CONC1=C(C#N)Oc2[nH]c(=O)[nH]c(=O)c2C1c1cccs1 (stereo unspecified) showed an IC50 [16] of 3.12 µM and an IC50 [17] of 6.38 µM.

In the case of CCO/C=N/C1=C(C#N)C(c2ccc(OC)cc2)c2c(n(C)c(=O)n(C)c2=O)O1 (stereo unspecified), the MIC [9] is reported as 6.25 mg/L (≈ 15.8 µM), the MIC [10] is reported as 6.25 mg/L (≈ 15.8 µM) and the MIC [11] is reported as 6.25 mg/L (≈ 15.8 µM). For the same molecule, the MIC [12] was 6.25 mg/L (≈ 15.8 µM).

For Cc1n[nH]c2c1C(c1ccccc1O)c1c([nH]c(=O)[nH]c1=O)O2 (stereo unspecified), the “diameter of the inhibition zone (DIZ)” value [18] was 14 mm.

Nc1ncnc2c1Oc1[nH]c(=O)[nH]c(=O)c1C2c1cccs1 (stereo unspecified) showed an IC50 [16] of 0.87 µM and an IC50 [17] of 7.25 µM.

For CC1(C)CC(=O)C2=C(C1)Oc1ncn3ncnc3c1C2c1ccccc1 (stereo unspecified), the Time [8] was 59.4 s.

COc1ccc(C2c3c([nH]c(=O)[nH]c3=O)Oc3ncn(-c4ccccc4N)c(=N)c32)cc1 (stereo unspecified) showed an IC50 [13] of 2.09 µM, an IC50 [14] of 2.43 µM and an IC50 [15] of 2.61 µM.

CCO/C=N/C1=C(C#N)C(c2ccc(OC)cc2)c2c([nH]c(=O)[nH]c2=O)O1 (stereo unspecified) showed an IC50 [13] of 2.09 µM, an IC50 [14] of 2.43 µM and an IC50 [15] of 2.61 µM.

In the case of COc1ccc(C2c3c(nc[nH]c3=O)Oc3ccc4cc(Br)ccc4c32)cc1 (stereo unspecified), the “diameter of the inhibition zone (DIZ)” value [19] is reported as 17 mm and the “diameter of the inhibition zone (DIZ)” value [20] is reported as 13 mm.

For Brc1ccc2c3c(ccc2c1)Oc1ncn2nc(-c4ccccc4)nc2c1C3, the “diameter of the inhibition zone (DIZ)” value [19] was 17 mm and the “diameter of the inhibition zone (DIZ)” value [20] was 13 mm.

For COc1ccc(C2C(C#N)=C(NC(=O)/C=C/C(=O)O)Oc3[nH]c(=O)[nH]c(=O)c32)cc1 (stereo unspecified), the IC50 [13] was 2.09 µM, the IC50 [14] was 2.43 µM and the IC50 [15] was 2.61 µM.

For CC1(C)CC(=O)C2=C(C1)Oc1ncn(-c3cccc(Cl)c3)c(=N)c1C2c1ccccc1 (stereo unspecified), the Time [8] was 54.8 s.

With CC1(C)CC(=O)C2=C(C1)Oc1ncn(-c3cccc4ccccc34)c(=N)c1C2c1ccccc1 (stereo unspecified) the Time [8] was 63.2 s.

For COc1ccc(C2c3c(N)ncnc3Oc3ccc4cc(Br)ccc4c32)cc1 (stereo unspecified), the “diameter of the inhibition zone (DIZ)” value [19] was 17 mm and the “diameter of the inhibition zone (DIZ)” value [20] was 13 mm.

CN[C@@H]1C[C@H]2O[C@@](C)([C@@H]1OC)n1c3ccccc3c3c4c(c5c6ccccc6n2c5c31)C(=O)NC4 [STAUROSPORINE] showed an IC50 [17] of 6.94 µM.
